Results published in patent publication US20240315993A1, “ANTIPARASITIC COMPOUNDS” (Intervet Inc., priority 2021, published 2024).

How the values were obtained:
[1] = tested on: juvenile soft ticks (Ornithodoros moubata); assay: Guinea pig - efficacy against argaside tick; assay type: in vivo
Method: (§1) Guinea pigs were locally co-infested (using an infestation device on a shaved skin area) with juvenile soft ticks (Ornithodoros moubata) and bed bugs (Cimex lectularius) before the treatment day (Day 0) to provide a baseline-negative control value. Guinea pigs were treated orally (by gavage) or subcutaneously at a dose of 5 mg/kg bodyweight of a test compound in a formulation of 10% DMF/Emulsifier+90% Aqua ad injectabilia.
(§2) Repeated local infestations with both parasites were performed at different time points after treatment. Within approximately 45 min after each infestation ten engorged ticks and ten engorged bed bugs were • collected and the percentage of dead and damaged parasites per species were • assessed approximately 24 hours following collection. The efficacy was • calculated as % of inhibition ‘killed+damaged’ parasites in a treated group in comparison to the baseline-negative control (using a modified Schneider Orelli's formula).
(§3) Results: Activity of the test compounds at different evaluation time-points (≥80% inhibition were found active): […]

[2] = tested on: bed bugs (Cimex lectularius); assay: Guinea pig - efficacy against bed bug; assay type: in vivo
Method: as §1, §2, §3

[3] = tested on: Cabbage Looper (Trichoplusia ni); conditions: Cabbage Looper second instar larvae, 128-well diet tray, 50 μg/cm^2, five to seven days, average of eight wells; cited from earlier work
[4] = tested on: Yellow Fever Mosquito (Aedes aegypti); conditions: Aedes aegypti larvae about 1 day old, 96-well plate, scored after 3 days; cited from earlier work
[5] = 5 mg/kg subcutaneous, after 7 days
[6] = 5 mg/kg subcutaneous, after 10 days
[7] = 5 mg/kg subcutaneous, after 14 days
[8] = 5 mg/kg subcutaneous, after 17 days
[9] = 5 mg/kg subcutaneous, after 21 days
[10] = 5 mg/kg subcutaneous, after 24 days
[11] = 5 mg/kg subcutaneous, after 28 days
[12] = 5 mg/kg subcutaneous, after 31 days
[13] = 5 mg/kg, for at least one week, both administration routes

O=C(Nc1ncc(F)cc1F)c1cc(NC(=O)C2C(c3cc(Cl)cc(C(F)(F)F)c3)C2(Cl)Cl)ccc1Cl (stereo not shown) [Compound 475]
activity against tick nymphs (≥80% inhibition, killed+damaged) ([1]; 5 mg/kg oral, Day 0): immediate activity | activity against tick nymphs (≥80% inhibition, killed+damaged) ([1]; 5 mg/kg oral, after 7 days): activity | activity against tick nymphs (≥80% inhibition, killed+damaged) ([1]; 5 mg/kg oral, after 10 days): activity | activity against tick nymphs (≥80% inhibition, killed+damaged) ([1]; 5 mg/kg oral, after 14 days): activity | activity against tick nymphs (≥80% inhibition, killed+damaged) ([1]; 5 mg/kg oral, after 17 days): activity | activity against tick nymphs (≥80% inhibition, killed+damaged) ([1]; 5 mg/kg subcutaneous, Day 0): immediate activity | activity against tick nymphs (≥80% inhibition, killed+damaged) [1, 5]: activity | activity against tick nymphs (≥80% inhibition, killed+damaged) [1, 6]: activity | activity against tick nymphs (≥80% inhibition, killed+damaged) [1, 7]: activity | activity against tick nymphs (≥80% inhibition, killed+damaged) [1, 8]: activity | activity against tick nymphs (≥80% inhibition, killed+damaged) [1, 9]: activity | activity against tick nymphs (≥80% inhibition, killed+damaged) [1, 10]: activity | activity against tick nymphs (≥80% inhibition, killed+damaged) [1, 11]: activity | activity against tick nymphs (≥80% inhibition, killed+damaged) [1, 12]: activity | activity against tick nymphs (≥80% inhibition, killed+damaged) ([1]; 5 mg/kg subcutaneous, after 35 days): activity | effective to control ticks [1, 13]: 100% | activity against bed bugs (≥80% inhibition, killed+damaged) ([2]; 5 mg/kg oral, Day 0): immediate activity | activity against bed bugs (≥80% inhibition, killed+damaged) ([2]; 5 mg/kg oral, after 7 days): activity | activity against bed bugs (≥80% inhibition, killed+damaged) ([2]; 5 mg/kg oral, after 10 days): activity | activity against bed bugs (≥80% inhibition, killed+damaged) ([2]; 5 mg/kg oral, after 14 days): activity | activity against bed bugs (≥80% inhibition, killed+damaged) ([2]; 5 mg/kg oral, after 17 days): activity | activity against bed bugs (≥80% inhibition, killed+damaged) ([2]; 5 mg/kg oral, after 21 days): activity | activity against bed bugs (≥80% inhibition, killed+damaged) ([2]; 5 mg/kg oral, after 24 days): activity | activity against bed bugs (≥80% inhibition, killed+damaged) ([2]; 5 mg/kg oral, after 28 days): activity | activity against bed bugs (≥80% inhibition, killed+damaged) ([2]; 5 mg/kg subcutaneous, Day 0): immediate activity | activity against bed bugs (≥80% inhibition, killed+damaged) [2, 5]: activity | activity against bed bugs (≥80% inhibition, killed+damaged) [2, 6]: activity | activity against bed bugs (≥80% inhibition, killed+damaged) [2, 7]: activity | activity against bed bugs (≥80% inhibition, killed+damaged) [2, 8]: activity | activity against bed bugs (≥80% inhibition, killed+damaged) [2, 9]: activity | activity against bed bugs (≥80% inhibition, killed+damaged) [2, 10]: activity | activity against bed bugs (≥80% inhibition, killed+damaged) [2, 11]: activity | activity against bed bugs (≥80% inhibition, killed+damaged) [2, 12]: activity | effective to control bed bugs [2, 13]: 100%

Cc1cc(N)ccc1NC(=O)c1cc(NC(=O)C2C(c3ccc(F)c(Cl)c3)C2(Cl)Cl)ccc1Cl (stereo not shown) [c50]
Test B: Bioassay on CL, percent mortality rating [3]: A (50-100) | Test C: Bioassay on Yellow Fever Mosquito, mortality rating [4]: A (80-100)

Cc1cc(N)ccc1NC(=O)c1cc(NC(=O)C2C(c3cc(Cl)cc(Cl)c3)C2(Cl)Cl)ccc1Cl (stereo not shown) [c82]
Test B: Bioassay on CL, percent mortality rating [3]: A (50-100) | Test C: Bioassay on Yellow Fever Mosquito, mortality rating [4]: A (80-100)

Cc1cc(N)ccc1NC(=O)c1cc(NC(=O)C2C(c3cc(Cl)cc(Cl)c3)C2(Cl)Cl)ccc1Cl (stereo not shown) [c83]
Test B: Bioassay on CL, percent mortality rating [3]: A (50-100) | Test C: Bioassay on Yellow Fever Mosquito, mortality rating [4]: A (80-100)
